Results from patent US9695155B2, “Herbicidal substituted pyrimidinyloxy benzene compounds” (E. I. DU PONT DE NEMOURS AND COMPANY, priority 2013, dated 2017).

Experiments:
waterhemp = assay: Test C preemergence; format: in vivo, Amaranthus rudis; conditions: for Waterhemp plant response rating: preemergence; for Plant response rating, Waterhemp: Preemergence, 31 g ai/ha, scale 0 to 100, 0 no effect, 100 complete control
In short: (§1)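 Visual ratings on a 0–100 scale (100 = complete control) were made versus untreated controls after 13–15 greenhouse days. Chemicals in a surfactant-containing non-phytotoxic solvent were applied either preemergence to seeds in loam–sand soil or postemergence to 1- to 4-leaf plants 2–18 cm tall.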

corn = assay: Test A postemergence; format: in vivo, Zea mays; conditions: 0 to 100 scale where 0 is no effect and 100 is complete control
In short: (§2)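 Greenhouse pot test, loam/sand soil. Formulation: non-phytotoxic solvent mix plus surfactant. Pre: directed spray onto soil after sowing. Post: plants at 1–2 leaf, 2–10 cm. Rated visually vs untreated controls at ~10 d, 0 (no effect) to 100 (complete control).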

lambsquarters [1] = assay: Test C postemergence; format: in vivo, Chenopodium album; conditions: for Plant response rating (0 to 100), Lambsquarters: 125 g ai/ha, postemergence; for Plant response rating, Lambsquarters: Postemergence, scale 0 to 100 (0 no effect, 100 complete control)
In short: as §1

yellow nutsedge = assay: Test C preemergence; format: in vivo, Cyperus esculentus; conditions: for Nutsedge, Yellow plant response rating: preemergence; for Plant response rating, Nutsedge, Yellow: Preemergence, 31 g ai/ha, scale 0 to 100, 0 no effect, 100 complete control
In short: as §1

lambsquarters [2] = assay: Test C preemergence; format: in vivo, Chenopodium album; conditions: for Lambsquarters plant response rating: preemergence; for Plant response rating, Lambsquarters: Preemergence, 31 g ai/ha, scale 0 to 100, 0 no effect, 100 complete control
In short: as §1

kochia = assay: Test C postemergence; format: in vivo, Kochia scoparia; conditions: for Kochia plant response rating: 16 g ai/ha, visual rating; for Kochia plant response rating / Plant response rating (0 to 100), Kochia: postemergence; for Kochia plant response rating / Plant response rating, Kochia: scale 0 to 100 (0 no effect, 100 complete control); for Plant response rating (0 to 100), Kochia: 125 g ai/ha; for Plant response rating, Kochia: Postemergence
In short: as §1

galium = assay: Test C postemergence; format: in vivo, Galium aparine; conditions: for Galium plant response rating: 16 g ai/ha, visual rating; for Galium plant response rating / Plant response rating (0 to 100), Galium: postemergence; for Galium plant response rating / Plant response rating, Galium: scale 0 to 100 (0 no effect, 100 complete control); for Plant response rating (0 to 100), Galium: 125 g ai/ha; for Plant response rating, Galium: Postemergence
In short: as §1

giant foxtail = assay: Test A postemergence; format: in vivo, Setaria faberii; conditions: 0 to 100 scale where 0 is no effect and 100 is complete control
In short: as §2

morningglory = assay: Test C postemergence; format: in vivo, Ipomoea coccinea; conditions: for Plant response rating (0 to 100), Morningglory: 125 g ai/ha, postemergence; for Plant response rating, Morningglory: Postemergence, scale 0 to 100 (0 no effect, 100 complete control)
In short: as §1

pigweed [3] = assay: Test A preemergence; format: in vivo, Amaranthus retroflexus; conditions: for Plant response rating, Pigweed: 125 g ai/ha, 0 to 100 scale where 0 is no effect and 100 is complete control; for Pigweed plant response rating: 500 g ai/ha, 0 to 100 scale, 0 no effect, 100 complete control, approx. 10 days
In short: as §2

pigweed [4] = assay: Test C preemergence; format: in vivo, Amaranthus retroflexus; conditions: for Pigweed plant response rating: preemergence; for Plant response rating, Pigweed: Preemergence, 31 g ai/ha, scale 0 to 100, 0 no effect, 100 complete control
In short: as §1

ragweed = assay: Test C preemergence; format: in vivo, Ambrosia elatior; conditions: for Ragweed plant response rating: preemergence; for Plant response rating, Ragweed: Preemergence, 31 g ai/ha, scale 0 to 100, 0 no effect, 100 complete control
In short: as §1

[5] = 16 g ai/ha, scale 0 to 100 (0 no effect, 100 complete control)
[6] = 62 g ai/ha, scale 0 (no effect) to 100 (complete control)
[7] = 125 g ai/ha, scale 0 (no effect) to 100 (complete control)

## N#Cc1cccc(Oc2ncc(F)cn2)c1-n1cc(I)cn1 [Compound 86]
waterhemp; [5]
  Waterhemp plant response rating: 100
waterhemp; [6]
  Waterhemp plant response rating: 100
waterhemp; [7]
  Waterhemp plant response rating: 100
waterhemp
  Plant response rating, Waterhemp: 100
corn; 125 g ai/ha
  Plant response rating, Corn: 50
corn; 500 g ai/ha
  Plant response rating, Corn: 100
Lambsquarters [1]
  Plant response rating (0 to 100), Lambsquarters: 85
Lambsquarters [1]; 31 g ai/ha, 13 to 15 days
  Plant response rating, Lambsquarters: 45
Lambsquarters [1]; 62 g ai/ha
  Plant response rating, Lambsquarters: 65
Yellow nutsedge; [5]
  Nutsedge, Yellow plant response rating: 0
Yellow nutsedge; [6]
  Nutsedge, Yellow plant response rating: 5
Yellow nutsedge; [7]
  Nutsedge, Yellow plant response rating: 35
Yellow nutsedge
  Plant response rating, Nutsedge, Yellow: 0
Lambsquarters [2]; [5]
  Lambsquarters plant response rating: 100
Lambsquarters [2]; [6]
  Lambsquarters plant response rating: 100
Lambsquarters [2]; [7]
  Lambsquarters plant response rating: 100
Lambsquarters [2]
  Plant response rating, Lambsquarters: 100
kochia; 13 to 15 days
  Kochia plant response rating: 50
kochia
  Plant response rating (0 to 100), Kochia: 95
kochia; 31 g ai/ha, 13 to 15 days
  Plant response rating, Kochia: 60
kochia; 62 g ai/ha
  Plant response rating, Kochia: 90
galium; 13 to 15 days
  Galium plant response rating: 55
galium
  Plant response rating (0 to 100), Galium: 80
galium; 31 g ai/ha, 13 to 15 days
  Plant response rating, Galium: 60
galium; 62 g ai/ha
  Plant response rating, Galium: 80
Giant foxtail; 125 g ai/ha
  Plant response rating, Foxtail, Giant: 90
Giant foxtail; 500 g ai/ha
  Plant response rating, Foxtail, Giant: 100
morningglory
  Plant response rating (0 to 100), Morningglory: 85
morningglory; 31 g ai/ha, 13 to 15 days
  Plant response rating, Morningglory: 80
morningglory; 62 g ai/ha
  Plant response rating, Morningglory: 85
Pigweed [3]
  Plant response rating, Pigweed: 100
  Pigweed plant response rating: 100
Pigweed [4]; [5]
  Pigweed plant response rating: 90
Pigweed [4]; [6]
  Pigweed plant response rating: 100
Pigweed [4]; [7]
  Pigweed plant response rating: 100
Pigweed [4]
  Plant response rating, Pigweed: 100
ragweed; [5]
  Ragweed plant response rating: 5
ragweed; [6]
  Ragweed plant response rating: 100
ragweed; [7]
  Ragweed plant response rating: 100
ragweed
  Plant response rating, Ragweed: 20

## N#Cc1cccc(Oc2ncc(Br)cn2)c1-n1cc(I)cn1 [Compound 88]
waterhemp; [5]
  Waterhemp plant response rating: 98
waterhemp; [6]
  Waterhemp plant response rating: 100
waterhemp; [7]
  Waterhemp plant response rating: 100
waterhemp
  Plant response rating, Waterhemp: 100
corn; 125 g ai/ha
  Plant response rating, Corn: 30
corn; 500 g ai/ha
  Plant response rating, Corn: 50
Lambsquarters [1]
  Plant response rating (0 to 100), Lambsquarters: 75
Lambsquarters [1]; 31 g ai/ha, 13 to 15 days
  Plant response rating, Lambsquarters: 75
Lambsquarters [1]; 62 g ai/ha
  Plant response rating, Lambsquarters: 60
Yellow nutsedge; [5]
  Nutsedge, Yellow plant response rating: 0
Yellow nutsedge; [6]
  Nutsedge, Yellow plant response rating: 5
Yellow nutsedge; [7]
  Nutsedge, Yellow plant response rating: 5
Yellow nutsedge
  Plant response rating, Nutsedge, Yellow: 0
Lambsquarters [2]; [5]
  Lambsquarters plant response rating: 70
Lambsquarters [2]; [6]
  Lambsquarters plant response rating: 100
Lambsquarters [2]; [7]
  Lambsquarters plant response rating: 100
Lambsquarters [2]
  Plant response rating, Lambsquarters: 100
kochia; 13 to 15 days
  Kochia plant response rating: 90
kochia
  Plant response rating (0 to 100), Kochia: 100
kochia; 31 g ai/ha, 13 to 15 days
  Plant response rating, Kochia: 95
kochia; 62 g ai/ha
  Plant response rating, Kochia: 95
galium; 13 to 15 days
  Galium plant response rating: 70
galium
  Plant response rating (0 to 100), Galium: 95
galium; 31 g ai/ha, 13 to 15 days
  Plant response rating, Galium: 80
galium; 62 g ai/ha
  Plant response rating, Galium: 70
Giant foxtail; 125 g ai/ha
  Plant response rating, Foxtail, Giant: 50
Giant foxtail; 500 g ai/ha
  Plant response rating, Foxtail, Giant: 80
morningglory
  Plant response rating (0 to 100), Morningglory: 95
morningglory; 31 g ai/ha, 13 to 15 days
  Plant response rating, Morningglory: 90
morningglory; 62 g ai/ha
  Plant response rating, Morningglory: 85
Pigweed [3]
  Plant response rating, Pigweed: 100
  Pigweed plant response rating: 100
Pigweed [4]; [5]
  Pigweed plant response rating: 100
Pigweed [4]; [6]
  Pigweed plant response rating: 100
Pigweed [4]; [7]
  Pigweed plant response rating: 100
Pigweed [4]
  Plant response rating, Pigweed: 100
ragweed; [5]
  Ragweed plant response rating: 0
ragweed; [6]
  Ragweed plant response rating: 5
ragweed; [7]
  Ragweed plant response rating: 60
ragweed
  Plant response rating, Ragweed: 0

## CCOc1cnn(-c2c(C#N)cccc2Oc2ncc(F)cn2)c1 [Compound 89]
waterhemp; [5]
  Waterhemp plant response rating: 80
waterhemp; [6]
  Waterhemp plant response rating: 100
waterhemp; [7]
  Waterhemp plant response rating: 100
waterhemp
  Plant response rating, Waterhemp: 100
corn; 125 g ai/ha
  Plant response rating, Corn: 60
corn; 500 g ai/ha
  Plant response rating, Corn: 90
Lambsquarters [1]
  Plant response rating (0 to 100), Lambsquarters: 55
Lambsquarters [1]; 31 g ai/ha, 13 to 15 days
  Plant response rating, Lambsquarters: 30
Lambsquarters [1]; 62 g ai/ha
  Plant response rating, Lambsquarters: 65
Yellow nutsedge; [5]
  Nutsedge, Yellow plant response rating: 0
Yellow nutsedge; [6]
  Nutsedge, Yellow plant response rating: 10
Yellow nutsedge; [7]
  Nutsedge, Yellow plant response rating: 70
Yellow nutsedge
  Plant response rating, Nutsedge, Yellow: 5
Lambsquarters [2]; [5]
  Lambsquarters plant response rating: 45
Lambsquarters [2]; [6]
  Lambsquarters plant response rating: 95
Lambsquarters [2]; [7]
  Lambsquarters plant response rating: 100
Lambsquarters [2]
  Plant response rating, Lambsquarters: 80
kochia; 13 to 15 days
  Kochia plant response rating: 45
kochia
  Plant response rating (0 to 100), Kochia: 50
kochia; 31 g ai/ha, 13 to 15 days
  Plant response rating, Kochia: 50
kochia; 62 g ai/ha
  Plant response rating, Kochia: 60
galium; 13 to 15 days
  Galium plant response rating: 45
galium
  Plant response rating (0 to 100), Galium: 55
galium; 31 g ai/ha, 13 to 15 days
  Plant response rating, Galium: 40
galium; 62 g ai/ha
  Plant response rating, Galium: 50
Giant foxtail; 125 g ai/ha
  Plant response rating, Foxtail, Giant: 80
Giant foxtail; 500 g ai/ha
  Plant response rating, Foxtail, Giant: 90
morningglory
  Plant response rating (0 to 100), Morningglory: 85
morningglory; 31 g ai/ha, 13 to 15 days
  Plant response rating, Morningglory: 70
morningglory; 62 g ai/ha
  Plant response rating, Morningglory: 55
Pigweed [3]
  Plant response rating, Pigweed: 90
  Pigweed plant response rating: 100
Pigweed [4]; [5]
  Pigweed plant response rating: 55
Pigweed [4]; [6]
  Pigweed plant response rating: 100
Pigweed [4]; [7]
  Pigweed plant response rating: 100
Pigweed [4]
  Plant response rating, Pigweed: 90
ragweed; [5]
  Ragweed plant response rating: 40
ragweed; [6]
  Ragweed plant response rating: 75
ragweed; [7]
  Ragweed plant response rating: 100
ragweed
  Plant response rating, Ragweed: 55
